The structures appear in SMILES notation.

This assay relates to 15 kinases (ABL1, AURKA, CDK5/p35, CSF1R, FGFR1, FGFR2, FLT4, KDR, LYN B, MAP4K2, MAP4K4, PDGFRA, PTK2, RET, RPS6KB1). Briefly: Z'-LYTE SelectScreen biochemical kinase panel: count of kinases inhibited over all 15 kinases tested. To be noted: 10 μmolar compound concentration; [ATP] Km app; out of 15 kinases tested.
As to `CC1(C)C(=O)Nc2ccc(Nc3nc4c(-c5cccc(F)c5)cccn4n3)cc21` [Cpd. 263 in WO09155551, reference compound], the “No. of kinases with >80% inhibition” value is listed as 15/15.
Regarding `Fc1cccc(-c2cccn3nc(Nc4ccc5[nH]cnc5c4)nc23)c1` [Cpd. 293 in WO09155551, reference compound], the “No. of kinases with >80% inhibition” value is recorded as 15/15.
Consider `CC1(C)NC(=O)c2ccc(Nc3nc4c(-c5cccc(F)c5)cccn4n3)cc21` [Cpd. 302 in WO09155551, reference compound], for which the “No. of kinases with >80% inhibition” value is listed as 15/15.

Values taken from US11339161B2, “Triazolo pyridines as modulators of gamma-secretase” (Boehringer Ingelheim International GmbH, priority 2017, dated 2022).
